System: Rats
Assay: Addiction of tramadol and clonidine tablets and compound tablets (withdrawal after 30 days of administration)
Conditions: for Body weight loss / Number of jumps: within one week after withdrawal; for Number of jumps and body weight loss compared with the blank control group (in words): after 30 consecutive days of administration
Protocol: Rats weighing approximately 150 g, half male and half female, were taken and randomly divided into 10 groups, that is, a blank control group, a morphine group, a tramadol group, a clonidine group, and compound tablet groups 1 to 6 (the rats in the compound tablet group 1 were administered with the compound tablets of Example 1, the rats in the compound tablet group 2 were administered with the compound tablets of Example 2, the rats in the compound tablet group 3 were administered with the compound tablets of Example 3, the rats in the compound tablet group 4 were administered with the compound tablets of Example 6, the rats in the compound tablet group 5 were administered with the compound tablets of Example 7, and the rats in the compound tablet group 6 were administered with the compound tablets of Example 10).
The rats were administered 3 times a day for 30 days. Administration methods were as follows: (1) the blank control group: PO (oral administration); and 0 mg/kg/time; (2) the morphine group: ip (intraperitoneal injection); and 5 mg/kg/time in week 1, 10 mg/kg/time in week 2, 20 mg/kg/time in week 3, and 30 mg/kg/time from day 22 to day 30; (3) the tramadol group: PO; and 25 mg/kg/time in week 1, 50 mg/kg/time in week 2, 100 mg/kg/time in week 3, and 200 mg/kg/time from day 22 to day 30; (4) the clonidine group: PO; and 0.075 mg/kg/time in week 1, 0.15 mg/kg/time in week 2, 0.3 mg/kg/time in week 3, and 0.6 mg/kg/time from day 22 to day 30; (5) the compound tablet groups: PO; and 25 mg/kg/time in week 1, 50 mg/kg/time in week 2, 100 mg/kg/time in week 3, and 200 mg/kg/time from day 22 to day 30. Withdrawal symptoms and body weight changes within one week after withdrawal of the rats in each group were observed.

[1] = PO 3 times a day for 30 days, 25/50/100/200 mg/kg/time rising by week
[2] = ip 3 times a day for 30 days, 5/10/20/30 mg/kg/time rising by week

Compound: COc1cccc(C2(O)CCCCC2CN(C)C)c1 (stereo not drawn) [Tramadol group, tramadol]
- Body weight loss [1]: 9.6 ± 2.3 g
- Number of jumps [1]: 17.3 ± 1.9
- Number of jumps and body weight loss compared with the blank control group (in words): extremely significant differences

Compound: CN1CC[C@]23c4c5ccc(O)c4O[C@H]2[C@@H](O)C=C[C@H]3[C@H]1C5 [Morphine group, morphine]
- Number of jumps and body weight loss compared with the blank control group (in words): extremely significant differences
- Body weight loss [2]: 10.1 ± 2.1 g
- Number of jumps [2]: 20.1 ± 2.1

— patent US20240100020A1, “MEDICINE FOR RELIEVING OR E[…] […] AND PREPARATION METHOD THEREFOR” (Shenzhen ScienCare Pharmaceutical Co., Ltd., priority 2020, published 2024)
